Assays:
BuChE from horse serum = biological target: T1, BuChE from horse serum (Equus caballus, UniProt P81908); assay: biochemical
T1 construct: BuChE from horse serum (EC 3.1.1.8, MP Biomedicals); purchased MP Biomedicals; host or cells: horse serum
Procedure: (§1) ChE inhibitory activities were measured using a modified 96-well microplate assay developed by. […] After incubation, 125 μl of 3 mM DTNB was added and the total volume was made up to 300 μl with Tris- HCl buffer (pH 8.0/7.4). Enzyme activity was initiated by the addition of 50 μl of 15 mm ATCI/BTCI. […] AChE activity was expressed as U/mg of protein (1U = μmol of thiocholine iodide formed/min/mg protein). […] Percentage of inhibition of AChE/BuChE was determined by comparison of rates of reaction of samples relative to the blank (Tris-HCl buffer) using the formula, where SA is the specific activity.
(§2) % of inhibition = [(SA of control − SA of test sample) / SA of control]*100

AChE from Electric eel = biological target: T2, AChE from Electric eel (Electrophorus electricus, UniProt O42275); assay: AChE inhibitory assay (modified Ellman 96-well microplate); assay type: biochemical
T2 construct: AChE from Electric eel (Type-VI-S, EC 3.1.1.7, Sigma); purchased Sigma Type-VI-S
Procedure: as §1, §2

[1] = tested on: T3, Aβ 25–35 pre-formed fibrils; assay: Thioflavin T assay, Phase II: disaggregation of pre-formed mature fibrils; assay type: biochemical; conditions: pre-formed Aβ 25–35 fibrils with ACTPG 250 μg/ml or galantamine 50 μM
T3 construct: Aβ 25–35 peptide was purchased from GenScript USA Inc; purchased GenScript USA Inc
Procedure: According to the method of Ramesh et al the anti-aggregation and disaggregation property of P. gymnospora was evaluated in two different phases. In phase I, the inhibition of aggregate formation was assessed by using oligomers. Consequently, in Phase II the disaggregation of the pre-formed fibrils were determined. Freshly prepared Aβ 25–35 (100 μM) monomer was incubated in Tris-HCl buffer pH 7.4 at 37°C for 20 h. However, after 20 h, an increase in fluorescence intensity was observed which represents the formation of oligomers. The acetone extract of P. gymnospora (ACTPG) (250 and 500 μg/ml) was added to the oligomers and subjected to incubation at 48 h for dose fixation. […] In phase I, the freshly prepared Aβ 25–35 (100 μM) was incubated with ACTPG (250 μg/ml), and the aggregation pattern was evaluated by ThT assay with the aliquots taken from the incubation mixture at 20 h and 48 h respectively. […] After that, ACTPG (250 μg/ml) was co-incubated with the pre-formed fibrils, and the disaggregation pattern was evaluated by taking the aliquots of incubation mixture at 96 h and 9 days using Thioflavin T assay using the standard Galantamine (50μM) as a positive control. […]
Thioflavin T-induced fluorescence changes were measured to quantify amyloid fibril formation by spectrofluorimeter (Microplate Analyzer) as described by. […]

T1 sequence (P81908 whole entry): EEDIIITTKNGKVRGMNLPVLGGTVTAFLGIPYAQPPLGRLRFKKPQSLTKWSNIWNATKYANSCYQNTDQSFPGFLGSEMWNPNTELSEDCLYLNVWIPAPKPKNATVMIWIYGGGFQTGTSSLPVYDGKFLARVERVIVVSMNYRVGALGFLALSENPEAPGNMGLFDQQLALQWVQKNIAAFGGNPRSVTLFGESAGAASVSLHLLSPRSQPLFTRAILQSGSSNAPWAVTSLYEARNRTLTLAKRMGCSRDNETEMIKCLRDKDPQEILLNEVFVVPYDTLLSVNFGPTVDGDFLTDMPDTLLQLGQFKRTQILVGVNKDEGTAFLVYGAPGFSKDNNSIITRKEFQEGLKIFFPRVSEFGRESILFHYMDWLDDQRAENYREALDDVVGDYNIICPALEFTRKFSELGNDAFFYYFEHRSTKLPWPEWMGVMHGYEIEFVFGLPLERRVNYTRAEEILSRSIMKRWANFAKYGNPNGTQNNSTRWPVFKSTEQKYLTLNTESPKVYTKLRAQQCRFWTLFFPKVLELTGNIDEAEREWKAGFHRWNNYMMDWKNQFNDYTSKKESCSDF
T2 sequence (O42275 24-633): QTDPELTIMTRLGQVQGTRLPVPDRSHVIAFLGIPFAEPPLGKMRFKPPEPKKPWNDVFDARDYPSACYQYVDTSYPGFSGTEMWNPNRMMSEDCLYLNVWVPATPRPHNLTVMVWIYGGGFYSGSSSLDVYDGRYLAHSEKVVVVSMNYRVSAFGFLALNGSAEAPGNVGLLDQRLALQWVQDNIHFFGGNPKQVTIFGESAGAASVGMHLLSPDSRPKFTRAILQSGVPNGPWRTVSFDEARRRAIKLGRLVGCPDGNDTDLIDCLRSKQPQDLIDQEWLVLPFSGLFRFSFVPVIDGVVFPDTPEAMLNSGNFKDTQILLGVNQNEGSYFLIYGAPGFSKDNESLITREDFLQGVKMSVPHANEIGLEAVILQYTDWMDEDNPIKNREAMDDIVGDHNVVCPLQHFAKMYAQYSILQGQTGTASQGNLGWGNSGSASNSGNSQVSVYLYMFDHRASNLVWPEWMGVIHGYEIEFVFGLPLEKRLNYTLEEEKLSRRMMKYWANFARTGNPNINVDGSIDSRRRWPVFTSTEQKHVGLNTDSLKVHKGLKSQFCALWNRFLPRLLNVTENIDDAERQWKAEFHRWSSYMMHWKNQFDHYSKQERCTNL

Structure (SMILES) | IC50 (BuChE from horse serum) [µM] | inhibition at up to 50 µg/mL (BuChE from horse serum; 10–50 μg/ml tested, at 50 μg/ml, read-out: maximum BuChE inhibitory activity) [%] | IC50 (AChE from Electric eel) [µM] | inhibition at 50 µg/mL (AChE from Electric eel; read-out: maximum AChE inhibitory activity) [%] | Thioflavin T fluorescence intensity ([1]; 96 h, Aβ alone 4.67 ± 0.28 AU) [AU] | Thioflavin T fluorescence intensity ([1]; 9 days, Aβ alone 6.06 ± 0.47 AU) [AU]
CC(C)=CCC[C@](C)(O)[C@@H]1CC=C(C)CC1 [alpha-bisabolol, Alpha-bisabolol] | < 45 | 66 | < 45 | 87 | – | –
COc1ccc2c3c1O[C@H]1C[C@@H](O)C=C[C@@]31CCN(C)C2 [Galantamine] | – | – | – | – | 3.62 ± 0.55 | 2.86 ± 0.94
